According to US20250304537A1 (Repare Therapeutics Inc., priority 2022, published 2025):
Where two headings read alike, the source gives them in different places.

How the values were obtained:
[1] = target: recombinant human Myt1 (full length PKMYT1) (Homo sapiens (Human), UniProt Q99640); test: Recombinant human Myt1 kinase assay (ADP-Glo); format: biochemical; settings: 10 μM ATP
In short: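 Full-length insect-cell-expressed human Myt1 (18 nM final) was preincubated with compound (0.5% DMSO) for 15 min at 22 °C. The reaction ran with 10 μM ATP for 60 min at 30 °C in HEPES buffer with Mg2+/Mn2+ and DTT. ADP formed was read by ADP-Glo luminescence, giving IC50 and % max inhibition.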

[2] = test system: PKMYT1 (CDK1 pThr14) in FUOV1 cells; test: PKMYT1 cell-based activity assay, CDK1 pThr14 AlphaLISA in FUOV1 cells; settings: read-out: FUOV-1 CDK1 pThr14 IC50
In short: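 FUOV1 cells were treated with PKMYT1 inhibitor for 2 h at 37 °C, then lysed. CDK1 pThr14 was measured by AlphaLISA, pairing an anti-pThr14 antibody with an anti-total CDK1 antibody (5 nM each). Signal read at 680/615 nm and used to derive IC50.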

Sequence of recombinant human Myt1 (full length PKMYT1) (Q99640 whole entry): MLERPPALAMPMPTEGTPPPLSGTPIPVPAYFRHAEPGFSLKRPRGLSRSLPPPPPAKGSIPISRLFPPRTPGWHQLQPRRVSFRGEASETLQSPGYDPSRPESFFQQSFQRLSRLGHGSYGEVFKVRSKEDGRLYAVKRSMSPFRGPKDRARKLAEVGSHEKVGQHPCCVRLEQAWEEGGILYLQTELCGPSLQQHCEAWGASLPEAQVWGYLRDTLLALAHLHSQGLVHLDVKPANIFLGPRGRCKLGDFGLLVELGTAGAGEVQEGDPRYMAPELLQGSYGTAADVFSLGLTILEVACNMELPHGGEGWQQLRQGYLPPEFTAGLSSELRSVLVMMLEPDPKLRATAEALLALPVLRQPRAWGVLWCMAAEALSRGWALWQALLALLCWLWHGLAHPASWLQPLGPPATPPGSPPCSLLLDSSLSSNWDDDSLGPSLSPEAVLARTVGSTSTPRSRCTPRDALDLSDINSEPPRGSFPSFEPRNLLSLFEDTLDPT

| IC50 [1] [nM] | IC50 ([2]; 2 h, 2 h compound incubation) [nM] | IC50 ([2]; 2 h, 2 h incubation) [nM] | IC50 ([2]; 2 h incubation) [nM] | IC50 ([2]; 2 h, 2 hours with compound) [nM] | Structure (SMILES) |
| --- | --- | --- | --- | --- | --- |
| 2 | 36 |  |  |  | Cc1ccc2[nH]ncc2c1-c1nc(-c2ccccc2NCC(F)F)nc(C(N)=O)c1N [Compound 400, 5-amino-2-(2-((2,2-difluoroethyl)amino)phenyl)-6-(5-methyl-1H-indazol-4-yl)pyrimidine-4-carboxamide] |
| 9 |  | 298 |  |  | Cc1ccc(O)c(C)c1-c1cc(-c2cncnc2)nc(C(N)=O)c1N [Compound 71] |
| 11 |  | 436 |  |  | Cc1ccc2[nH]ncc2c1-c1cc(-c2ccnc(NC3CC3)n2)nc(C(N)=O)c1N [Compound 163] |
| 5 | 105 |  |  |  | COC1(C(=O)Nc2ccccc2-c2nc(C(N)=O)c(N)c(-c3c(C)ccc4[nH]ncc34)n2)CC1 [Compound 432] |
| 4 |  | 23 |  |  | CCC(COc1nccc(-c2cc(-c3c(C)ccc4[nH]ncc34)c(N)c(C(N)=O)n2)n1)OC (stereo not drawn) [Compound 302] |
| 2 |  |  | 168 |  | COc1cccc(-c2cc(-c3c(C)ccc(O)c3C)c(N)c(C(N)=O)n2)n1 [Compound 66] |
| 4 | 81 |  |  |  | Cc1ccc2[nH]ncc2c1-c1nc(-c2ccccc2NC(=O)C2CCOCC2)nc(C(N)=O)c1N [Compound 424] |
| 176 |  |  |  | > 10000 | Cc1ccc2[nH]ncc2c1-c1nc(-c2cccnc2Nc2ccnn2C2CC2)nc(C(N)=O)c1N [Compound 885] |
| 27 |  | 1230 |  |  | Cc1ccc2[nH]ncc2c1-c1nc(-c2ccncc2)nc(C(N)=O)c1N [Compound 100] |
| 6 | 80 |  |  |  | Cc1ccc2[nH]ncc2c1-c1nc(-c2ccccc2NC(=O)C2(C3CC3)CC2)nc(C(N)=O)c1N [Compound 478] |
| 5 |  | 575 |  |  | Cc1ccc(O)c(C)c1-c1cc(-c2cc(F)cc(F)c2)nc(C(N)=O)c1N [Compound 16, 3-amino-6-(3,5-difluorophenyl)-4-(3-hydroxy-2,6-dimethylphenyl)picolinamide] |
| 19 |  | 462 |  |  | Cc1ccc2[nH]ncc2c1-c1nc(-c2cccc(N3CCOCC3)c2)nc(C(N)=O)c1N [Compound 102] |
| < 3 |  |  |  | 209 | Cc1ccc2[nH]ncc2c1-c1nc(-c2cccnc2NC2CC(OC(F)F)C2)nc(C(N)=O)c1N (stereo not drawn) [Compound 893] |
| 5 | 114 |  |  |  | Cc1ccc2[nH]ncc2c1-c1nc(-c2cc(F)ccc2NS(=O)(=O)C2(C)CC2)nc(C(N)=O)c1N [Compound 482] |
| 13 | 523 |  |  |  | Cc1cccc(-c2nc(C(N)=O)c(N)c(-c3c(C)ccc4[nH]ncc34)n2)c1NC(=O)C1(C)CC1 [Compound 440] |
| 5 |  |  | 387 |  | Cc1ccc(O)c(C)c1-c1cc(-c2nc3ccccc3s2)nc(C(N)=O)c1N [Compound 58] |
| 4 |  |  |  | 147 | Cc1ccc2[nH]ncc2c1-c1nc(-c2cn(C)nc2NC(C)C)nc(C(N)=O)c1N [Compound 904] |
| 3 | 25 |  |  |  | Cc1ccc2[nH]ncc2c1-c1nc(-c2ccccc2NC2CC2)nc(C(N)=O)c1N [Compound 476] |
| 2 | 14 |  |  |  | CC(C)(C)C(=O)Nc1ccccc1-c1nc(C(N)=O)c(N)c(-c2c(Cl)ccc3[nH]ncc23)n1 [Compound 403] |
| 5 |  | 22 |  |  | CO[C@H](COc1nccc(-c2cc(-c3c(C)ccc4[nH]ncc34)c(N)c(C(N)=O)n2)n1)c1ccccc1 (atropisomer, axis not shown) [Compound 309] |
| 7 |  | 122 |  |  | Cc1ccc2[nH]ncc2c1-c1cc(-c2ccnc(OC3COC3)n2)nc(C(N)=O)c1N [Compound 161] |
| 10 |  | 539 |  |  | COCCOc1cccc(-c2cc(-c3c(C)ccc4[nH]ncc34)c(N)c(C(N)=O)n2)n1 [Compound 245] |
| 16 | 261 |  |  |  | Cc1ccc2[nH]ncc2c1-c1nc(-c2cc(F)c(F)cc2NC(=O)C2(C(F)(F)F)CC2)nc(C(N)=O)c1N [Compound 471] |
| 6 |  | 368 |  |  | Cc1ccc(O)c(C)c1-c1cc(-c2ccco2)nc(C(N)=O)c1N [Compound 50] |
